The record followed here is patent publication US20040148991A1, “Method and apparatus for dissolving urea” (priority 2003, published 2004).

The nature of this series: Urea dissolution time in water at 50/50 wt/wt urea/water concentration. It is filed as physicochemical. To be noted: for dissolution time faster than control test: versus control 12 minutes. The method, then: The next step of the method of the present invention comprises mixing the urea prills and the water so as to form a mixture. After the mixture is formed, the mixture of urea and water is then allowed to stand for an amount of time sufficient to allow the temperature of the mixture to reach a predetermined temperature. In a preferred embodiment, the predetermined temperature is between about 19° C. and 24° C., and more preferably, about 23° C. The amount of time required for the temperature of the mixture to reach the predetermined temperature depends upon the amount of mixture in mixing container 12. During this time period in which the mixture is allowed to stand, the temperature of the mixture is monitored with temperature sensor 20. When the temperature of the mixture reaches the predetermined temperature, mixing of the urea/water mixture is resumed and continues until the urea completely dissolves in the water. The time for urea dissolution is measured from the moment the mixing resumes to the point in time when the urea becomes completely dissolved in the water. The solution is outputted from mixing container 12 via outlet 14.
A series of tests were conducted in order to determine the urea dissolution time when various amounts of water were initially added to the urea and wherein additional amounts of water were subsequently added to attain the 50/50 wt/wt urea/water concentration. A control test was first conducted in order to obtain reference data. About 40 grams of urea prills were mixed with an equal amount of water, i.e. 40 grams (or milliliters). The mixture was not allowed to stand for any amount of time. Thus, the mixing step began as soon as 40 grams of urea and 40 grams of water were added to mixing container 12. The time for the urea to completely dissolve was about twelve (12) minutes and is indicated by numeral 100 in the curve of FIG. 2.
In the first test, about 40 grams of urea and 10 grams of water were deposited into mixing container 12. The mixture was then mixed or stirred, and allowed to stand until the temperature of the mixture reached about room temperature or about 23° C. Next, an amount of water necessary to achieve a urea/water concentration of 50/50 wt/wt was added to the mixture. Since the initial amount of water was 10 grams , 30 grams of water were added to the mixture to achieve the desired 50/50 wt/wt concentration. The urea and water were mixed again. The urea completely dissolved in eight (8) minutes after the 50/50 wt/wt urea/water concentration was achieved. This is indicated by numeral 102 on the curve in FIG. 2. The dissolution time was about 33% faster than the control test dissolution time of twelve (12) minutes.
In the next test, about 40 grams of urea and 15 grams of water were deposited into mixing container 12. The mixture was then mixed or stirred, and allowed to stand until the temperature of the mixture reached about room temperature or about 23° C. Next, an amount of water necessary to achieve a 50/50 wt/wt urea/water concentration was added to the mixture. Since the initial amount of water was 15 grams, 25 grams of water were added to the mixture to achieve the desired 50/50 wt/wt urea/water concentration. The urea and water were mixed again. The urea completely dissolved in seven (7) minutes after the 50/50 wt/wt urea/water concentration was achieved. This is indicated by numeral 104 on the curve in FIG. 2. The dissolution time was about 42% faster than the control test dissolution time of twelve (12) minutes.
In the next test, about 40 grams of urea and 20 grams of water were deposited into mixing container 12. The mixture was then mixed or stirred, and allowed to stand until the temperature of the mixture reached about room temperature or about 23° C. Next, an amount of water necessary to achieve a urea/water concentration of 50/50 wt/wt was added to the mixture. […]

With `NC(N)=O` [urea], the “dissolution time faster than control test” value (Test 1: 10 g water initially) is “about 33%”; the “dissolution time faster than control test” value (Test 2: 15 g water initially) is given as “about 42%”; the “dissolution time faster than control test” value (Test 3: 20 g water initially) is “about 58%”; the “dissolution time faster than control test” value (Test 4: 25 g water initially) is listed as “about 67%”; the “dissolution time faster than control test” value (Test 5: 40 g water initially) is recorded as “about 75%”. Besides, the “time for the urea to completely dissolve” value (Test 1: 40 g urea + 10 g water initially, stand until about 23° C., then 30 g water added to 50/50 wt/wt) worked out at 8 min; the “time for the urea to completely dissolve” value (Test 2: 40 g urea + 15 g water initially, stand until about 23° C., then 25 g water added to 50/50 wt/wt) came to 7 min; the “time for the urea to completely dissolve” value (Test 3: 40 g urea + 20 g water initially, stand until about 23° C., then 20 g water added to 50/50 wt/wt) came to 5 min; the “time for the urea to completely dissolve” value (Test 4: 40 g urea + 25 g water initially, stand until about 23° C., then 15 g water added to 50/50 wt/wt) was determined as 4 min; the “time for the urea to completely dissolve” value (Test 5: 40 g urea + 40 g water, mixed, stand until about 23° C., mixed again) is 3 min; the “time for the urea to completely dissolve” value (control test: 40 g urea prills + 40 g water, mixture not allowed to stand) is approximately 12 min.
